Like-named read-outs stand apart in the source and are kept apart here. Where only a bound is given, the exact number is not on record here.

In one experiment the target is T1, hSCN3A (Homo sapiens, UniProt Q9NY46).
T1 construct: expressed in transfected cells
The experiment can be described thus: Whole-cell patch-clamp electrophysiology, hSCN3A in HEK cells. Format: cell-based. The method, then: (§1) Human Embryonic Kidney (HEK) cells were transfected with hSCN3A or hSCN9A constructs using lipofectamine reagent (Invitrogen), using standard techniques. […] Clones were screened for expression using the whole-cell voltage-clamp technique.
(§2) HEK cells stably transfected with hSCN3A or hSCN9A were maintained in DMEM medium supplemented with 10% heat-inactivated fetal bovine serum and 400 μg/ml G418 sulfate in an incubator at 37° C. with a humidified atmosphere of 10% CO2. […] For electrophysiological studies, cells were removed from the culture flask by brief trypsinization and replated at low density onto glass cover slips. Cells were typically used for electrophysiological experiments within 24 to 72 h after plating. […]
(§3) The voltage-dependence of inactivation was determined by applying a series of depolarizing prepulses (8 sec long in 10 mV increments) from a negative holding potential. […] Cells were then voltage clamped at the empirically determined V1/2.
(§4) Compounds were tested for their ability to inhibit hSCN3A or hSCN9A sodium channels by activating the channel with a 20 msec voltage step to 0 mV following an 8 second conditioning prepulse to the empirically determined V1/2 (Table B). Compound effect (% inhibition) was determined by difference in current amplitude before and after application of test compounds. […]
Background: The patch-clamp technique gives a direct electrical read-out from membranes.

For a further experiment, the target named is T2, hSCN9A (Homo sapiens, UniProt Q15858).
T2 construct: expressed in transfected cells
T2 sequence (Q15858 whole entry): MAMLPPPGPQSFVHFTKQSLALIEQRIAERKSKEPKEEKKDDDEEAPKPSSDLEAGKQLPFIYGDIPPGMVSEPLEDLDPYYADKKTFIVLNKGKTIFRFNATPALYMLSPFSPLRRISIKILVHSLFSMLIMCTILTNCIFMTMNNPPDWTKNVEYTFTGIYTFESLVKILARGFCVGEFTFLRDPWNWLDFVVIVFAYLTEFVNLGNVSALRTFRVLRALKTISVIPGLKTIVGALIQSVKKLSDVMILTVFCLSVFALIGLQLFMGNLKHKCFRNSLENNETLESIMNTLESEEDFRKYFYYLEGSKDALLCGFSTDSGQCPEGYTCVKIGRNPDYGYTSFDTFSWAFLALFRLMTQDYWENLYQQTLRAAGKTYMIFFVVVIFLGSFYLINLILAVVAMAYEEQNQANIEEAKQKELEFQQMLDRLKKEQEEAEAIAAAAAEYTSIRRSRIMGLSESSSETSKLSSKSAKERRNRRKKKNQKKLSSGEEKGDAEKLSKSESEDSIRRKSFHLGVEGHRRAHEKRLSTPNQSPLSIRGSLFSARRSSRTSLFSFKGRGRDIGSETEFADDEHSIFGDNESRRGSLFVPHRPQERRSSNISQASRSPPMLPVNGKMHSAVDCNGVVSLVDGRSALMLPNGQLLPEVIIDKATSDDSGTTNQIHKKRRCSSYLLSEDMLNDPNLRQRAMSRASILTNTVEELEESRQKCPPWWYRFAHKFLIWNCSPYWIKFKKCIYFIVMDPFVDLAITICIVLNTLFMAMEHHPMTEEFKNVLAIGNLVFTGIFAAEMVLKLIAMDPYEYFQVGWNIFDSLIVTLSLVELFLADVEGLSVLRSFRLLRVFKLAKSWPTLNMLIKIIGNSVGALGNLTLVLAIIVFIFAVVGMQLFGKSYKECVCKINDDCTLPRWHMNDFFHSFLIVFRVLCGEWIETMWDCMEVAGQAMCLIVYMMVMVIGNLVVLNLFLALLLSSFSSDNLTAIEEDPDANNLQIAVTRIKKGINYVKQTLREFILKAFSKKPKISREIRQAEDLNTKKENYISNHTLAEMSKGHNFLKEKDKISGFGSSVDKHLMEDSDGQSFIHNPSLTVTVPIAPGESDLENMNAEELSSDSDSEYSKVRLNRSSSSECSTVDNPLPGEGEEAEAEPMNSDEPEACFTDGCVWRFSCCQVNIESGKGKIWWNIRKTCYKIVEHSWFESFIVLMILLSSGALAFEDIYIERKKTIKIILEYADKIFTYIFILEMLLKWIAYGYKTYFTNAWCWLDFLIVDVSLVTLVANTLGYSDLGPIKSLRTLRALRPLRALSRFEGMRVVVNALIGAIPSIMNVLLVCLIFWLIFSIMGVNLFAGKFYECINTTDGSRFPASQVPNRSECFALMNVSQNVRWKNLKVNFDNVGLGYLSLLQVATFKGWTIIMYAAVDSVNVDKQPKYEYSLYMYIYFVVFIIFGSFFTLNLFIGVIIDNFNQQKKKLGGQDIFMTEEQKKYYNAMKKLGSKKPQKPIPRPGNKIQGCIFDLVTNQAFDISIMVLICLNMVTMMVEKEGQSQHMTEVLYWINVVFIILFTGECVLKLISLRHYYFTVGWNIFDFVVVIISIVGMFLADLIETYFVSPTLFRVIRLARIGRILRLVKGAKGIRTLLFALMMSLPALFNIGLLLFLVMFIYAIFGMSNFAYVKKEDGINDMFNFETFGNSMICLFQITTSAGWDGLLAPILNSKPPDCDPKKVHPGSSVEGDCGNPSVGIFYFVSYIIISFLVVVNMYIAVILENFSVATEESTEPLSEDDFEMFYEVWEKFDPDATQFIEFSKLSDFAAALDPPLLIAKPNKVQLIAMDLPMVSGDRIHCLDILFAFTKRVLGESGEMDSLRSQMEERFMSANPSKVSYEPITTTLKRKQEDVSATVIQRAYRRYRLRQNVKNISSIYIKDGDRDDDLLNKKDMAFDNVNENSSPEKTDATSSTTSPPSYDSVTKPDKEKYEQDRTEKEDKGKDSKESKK
The experiment can be described thus: Whole-cell patch-clamp electrophysiology, hSCN9A in HEK cells. Format: cell-based. The method, then: as §1, §2, §3, §4

The target in the next experiment is Nav1.3 (Homo sapiens, UniProt Q9NY46). The note with it: read-out: TTX IC-50; cited from earlier work.
Sequence of Nav1.3 (Q9NY46 whole entry, looked up): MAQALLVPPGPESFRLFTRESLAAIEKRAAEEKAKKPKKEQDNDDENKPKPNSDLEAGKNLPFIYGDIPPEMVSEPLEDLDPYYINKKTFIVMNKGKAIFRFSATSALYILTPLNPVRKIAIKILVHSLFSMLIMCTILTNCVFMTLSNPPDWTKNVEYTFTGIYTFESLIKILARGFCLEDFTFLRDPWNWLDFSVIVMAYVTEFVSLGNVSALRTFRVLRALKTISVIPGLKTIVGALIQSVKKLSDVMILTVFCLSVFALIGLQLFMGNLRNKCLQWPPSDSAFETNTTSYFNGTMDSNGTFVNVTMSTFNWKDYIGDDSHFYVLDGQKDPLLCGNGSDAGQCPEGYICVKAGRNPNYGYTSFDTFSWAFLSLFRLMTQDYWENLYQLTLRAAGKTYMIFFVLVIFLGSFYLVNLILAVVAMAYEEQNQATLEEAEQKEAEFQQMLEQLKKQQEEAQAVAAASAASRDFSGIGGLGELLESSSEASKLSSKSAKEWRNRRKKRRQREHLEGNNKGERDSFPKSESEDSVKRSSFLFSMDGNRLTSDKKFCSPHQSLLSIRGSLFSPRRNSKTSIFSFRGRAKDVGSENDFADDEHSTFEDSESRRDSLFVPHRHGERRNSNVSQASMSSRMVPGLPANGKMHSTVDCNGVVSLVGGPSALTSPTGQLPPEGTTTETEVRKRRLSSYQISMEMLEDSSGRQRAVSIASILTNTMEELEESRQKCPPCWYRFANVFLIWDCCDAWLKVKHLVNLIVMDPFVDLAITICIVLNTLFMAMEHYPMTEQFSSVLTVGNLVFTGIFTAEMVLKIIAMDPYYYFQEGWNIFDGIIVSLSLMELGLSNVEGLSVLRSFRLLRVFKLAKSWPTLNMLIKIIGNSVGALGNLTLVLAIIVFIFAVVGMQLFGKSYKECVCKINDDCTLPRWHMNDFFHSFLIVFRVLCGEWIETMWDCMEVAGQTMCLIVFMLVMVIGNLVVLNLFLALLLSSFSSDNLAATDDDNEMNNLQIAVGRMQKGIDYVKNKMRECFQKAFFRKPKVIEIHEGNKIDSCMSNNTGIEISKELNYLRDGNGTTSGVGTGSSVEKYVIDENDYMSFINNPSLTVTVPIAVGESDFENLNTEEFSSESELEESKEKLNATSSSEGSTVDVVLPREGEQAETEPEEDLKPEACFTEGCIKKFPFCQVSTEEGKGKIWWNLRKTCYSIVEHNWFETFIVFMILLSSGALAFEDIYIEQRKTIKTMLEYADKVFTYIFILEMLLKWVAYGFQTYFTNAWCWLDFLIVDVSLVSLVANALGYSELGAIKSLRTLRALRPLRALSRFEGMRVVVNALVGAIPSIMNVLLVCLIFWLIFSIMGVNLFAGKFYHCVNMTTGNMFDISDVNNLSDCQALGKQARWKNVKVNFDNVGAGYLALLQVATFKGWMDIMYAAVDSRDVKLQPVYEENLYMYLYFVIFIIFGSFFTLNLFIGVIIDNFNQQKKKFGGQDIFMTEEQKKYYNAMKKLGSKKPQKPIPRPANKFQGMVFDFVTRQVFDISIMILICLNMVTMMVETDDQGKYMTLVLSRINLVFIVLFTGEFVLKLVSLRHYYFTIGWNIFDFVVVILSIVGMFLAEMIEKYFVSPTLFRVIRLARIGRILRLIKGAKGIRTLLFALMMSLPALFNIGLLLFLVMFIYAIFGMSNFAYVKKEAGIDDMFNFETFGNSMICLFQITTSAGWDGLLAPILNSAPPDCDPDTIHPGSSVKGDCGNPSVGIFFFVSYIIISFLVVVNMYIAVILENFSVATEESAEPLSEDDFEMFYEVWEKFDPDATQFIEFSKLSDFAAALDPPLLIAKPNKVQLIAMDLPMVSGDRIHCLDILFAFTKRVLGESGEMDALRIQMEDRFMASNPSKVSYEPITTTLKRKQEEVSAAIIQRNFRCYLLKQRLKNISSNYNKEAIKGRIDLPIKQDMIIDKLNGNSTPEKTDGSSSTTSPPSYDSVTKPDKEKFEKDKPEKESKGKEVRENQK
The next experiment deals with Nav1.6 (Homo sapiens, UniProt Q9UQD0). The following applies: read-out: TTX IC-50; cited from earlier work.
Another experiment addresses Nav1.8 (Homo sapiens, UniProt Q9Y5Y9). The following applies: read-out: TTX IC-50; cited from earlier work.
The next experiment addresses Nav1.9 (Homo sapiens, UniProt Q9UI33). The following applies: read-out: TTX IC-50; cited from earlier work.
The target in a further experiment is Nav1.1 (Homo sapiens, UniProt P35498). The following applies: read-out: TTX IC-50; cited from earlier work.
The target in a further experiment is Nav1.2 (Homo sapiens, UniProt Q99250). The following applies: read-out: TTX IC-50; cited from earlier work.

T1 sequence (Q9NY46 whole entry): as the sequence (Q9NY46 whole entry, looked up) above

On to `O=S(=O)(CCc1ccc(C(F)(F)F)cc1)c1ccc(S(=O)(=O)Nc2nccs2)cc1` [Compound 20, N-(thiazol-2-yl)-4-(4-(trifluoromethyl)phenethylsulfonyl)benzenesulfonamide], for which the IC50 on hSCN3A was 160 nM; on hSCN9A, > 10000 nM.
Take `O=S(=O)(Nc1nccs1)c1ccc(S(=O)(=O)c2ccccc2)cc1` [Compound 65, 4-(phenylsulfonyl)-N-(thiazol-2-yl)benzenesulfonamide]: the IC50 on hSCN3A (estimated IC-50 from single point % inhibition, HEK cells, 8 sec prepulse to V1/2, step to 0 mV, read-out: hSCN3A EIC-50) is 5000 nM; on hSCN9A (estimated IC-50 from single point % inhibition, HEK cells, 8 sec prepulse to V1/2, step to 0 mV, read-out: hSCN9A EIC-50), 2700 nM.
Take `NC1=N[C@H](O)[C@H]2[C@H]3O[C@]4(O)O[C@@H]([C@@H](O)[C@@]2(N1)[C@@H]4O)[C@]3(O)CO` [TTX, tetrodotoxin]: the IC50 is 15 nM on Nav1.3; 6 nM on Nav1.6; 50000 nM at Nav1.8; 1000 nM at Nav1.9; 10 nM on Nav1.1; 10 nM at Nav1.2.

Source of the values: patent US8853250B2, “Sodium channel inhibitors” (Icagen, Inc., priority 2007, dated 2014).
